Our source for the Km and kcat values is ChEMBL document CHEMBL1139906, “Structure function analysis of benzalacetone synthase from Rheum palmatum” (Bioorg Med Chem Lett, 2007).

One data set deals with Rheum palmatum. Put plainly: Activity of Rheum palmatum benzalacetone synthase S338V mutant.
Substrate in data set [1]: CC(C)(COP(=O)(O)OP(=O)(O)OC[C@H]1O[C@@H](n2cnc3c(N)ncnc32)[C@H](O)[C@@H]1OP(=O)(O)O)[C@@H](O)C(=O)NCCC(=O)NCCSC(=O)/C=C/c1ccc(O)cc1
Put plainly: Activity of Rheum palmatum benzalacetone synthase.

As usually defined, the Km is the substrate concentration at which the rate is half of its maximum. By kcat is commonly meant the maximal rate divided by the concentration of active sites.

Turning to `CC(C)(COP(=O)(O)OP(=O)(O)OC[C@H]1O[C@@H](n2cnc3c(N)ncnc32)[C@H](O)[C@@H]1OP(=O)(O)O)[C@@H](O)C(=O)NCCC(=O)NCCSC(=O)/C=C/c1ccc(O)cc1`, in the data set on Rheum palmatum, the Km was 9.4 µM and the catalytic constant (kcat) was determined as 0.053 s⁻¹.

B1: Polyketide synthase BAS (Rheum palmatum), Q94FV7 (protein)
chain: MATEEMKKLATVMAIGTANPPNCYYQADFPDFYFRVTNSDHLINLKQKFKRLCENSRIEKRYLHVTEEILKENPNIAAYEATSLNVRHKMQVKGVAELGKEAALKAIKEWGQPKSKITHLIVCCLAGVDMPGADYQLTKLLDLDPSVKRFMFYHLGCYAGGTVLRLAKDIAENNKGARVLIVCSEMTTTCFRGPSETHLDSMIGQAILGDGAAAVIVGADPDLTVERPIFELVSTAQTIVPESHGAIEGHLLESGLSFHLYKTVPTLISNNIKTCLSDAFTPLNISDWNSLFWIAHPGGPAILDQVTAKVGLEKEKLKVTRQVLKDYGNMSSATVFFIMDEMRKKSLENGQATTGEGLEWGVLFGFGPGITVETVVLRSVPVIS
In the case of B1, in data set [1], the Km was 10 µM and the turnover number (kcat) amounted to 0.0298 s⁻¹.
